Measurements from patent US12077503B2, “Substituted cyclic amides and their use as herbicides” (FMC CORPORATION, priority 2015, dated 2024).

Experiments:
Type in all cases: in vivo
[1] = tested on: pigweed (Amaranthus retroflexus); experiment: Test A preemergence; settings: Amaranthus retroflexus, pre-emergence, 240 h; for pest or weed control at 125 g/ha: 125 g ai/ha, visual injury after approximately 10 d, 0 to 100 scale where 0 is no effect and 100 is complete control; for pest or weed control at 500 g/ha: 500 g ai/ha
[2] = tested on: barnyardgrass (Echinochloa crus-galli); experiment: Test A preemergence; settings: Echinochloa crus-galli, pre-emergence, 240 h; for pest or weed control at 125 g/ha: 125 g ai/ha, visual injury after approximately 10 d, 0 to 100 scale where 0 is no effect and 100 is complete control; for pest or weed control at 500 g/ha: 500 g ai/ha
Method in brief: (§1)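 Visual injury scores from 0, no effect, to 100, complete control, were assigned versus untreated controls roughly 10 d after treatment in the greenhouse. Test chemicals, formulated with surfactant in a non-phytotoxic solvent, were applied to planted seeds as a preemergence soil spray or postemergence to one- to two-leaf plants 2 to 10 cm tall, in loam–sand soil.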

[3] = tested on: giant foxtail (Setaria faberii); experiment: Test A preemergence; settings: Setaria faberi, pre-emergence, 240 h; for pest or weed control at 125 g/ha: 125 g ai/ha, visual injury after approximately 10 d, 0 to 100 scale where 0 is no effect and 100 is complete control; for pest or weed control at 500 g/ha: 500 g ai/ha
Method in brief: as §1

[4] = tested on: ragweed (common ragweed, Ambrosia elatior); experiment: Test A preemergence; settings: Ambrosia artemisiifolia, pre-emergence, 240 h; for pest or weed control at 125 g/ha: 125 g ai/ha, visual injury after approximately 10 d, 0 to 100 scale where 0 is no effect and 100 is complete control; for pest or weed control at 500 g/ha: 500 g ai/ha
Method in brief: as §1

Kochia (Kochia scoparia) [5] = experiment: Test A preemergence; settings: Bassia scoparia, pre-emergence, 240 h; for pest or weed control at 125 g/ha: 125 g ai/ha, visual injury after approximately 10 d, 0 to 100 scale where 0 is no effect and 100 is complete control; for pest or weed control at 500 g/ha: 500 g ai/ha
Method in brief: as §1

[6] = tested on: ryegrass, Italian (Italian ryegrass, Lolium multiflorum); experiment: Test A preemergence; settings: Lolium multiflorum, pre-emergence, 240 h; for pest or weed control at 125 g/ha: 125 g ai/ha, visual injury after approximately 10 d, 0 to 100 scale where 0 is no effect and 100 is complete control; for pest or weed control at 500 g/ha: 500 g ai/ha
Method in brief: as §1

[7] = tested on: wheat (Triticum aestivum); experiment: Test A postemergence; settings: Triticum aestivum, post-emergence, 240 h, read-out: Plant response rating, Wheat; for plant injury at 125 g/ha: 125 g ai/ha, postemergence, visual rating after approx. 10 d, 0 to 100 scale (0 no effect, 100 complete control); for plant injury at 500 g/ha: Postemergence, 500 g ai/ha, 0 to 100 scale where 0 is no effect and 100 is complete control
Method in brief: as §1

[8] = tested on: pigweed (Amaranthus retroflexus); experiment: Test A postemergence; settings: Amaranthus retroflexus, post-emergence, 240 h, read-out: Plant response rating, Pigweed; for pest or weed control at 125 g/ha: 125 g ai/ha, postemergence, visual rating after approx. 10 d, 0 to 100 scale (0 no effect, 100 complete control); for pest or weed control at 500 g/ha: Postemergence, 500 g ai/ha, 0 to 100 scale where 0 is no effect and 100 is complete control
Method in brief: as §1

[9] = tested on: barnyardgrass (Echinochloa crus-galli); experiment: Test A postemergence; settings: Echinochloa crus-galli, post-emergence, 240 h, read-out: Plant response rating, Barnyardgrass; for pest or weed control at 125 g/ha: 125 g ai/ha, postemergence, visual rating after approx. 10 d, 0 to 100 scale (0 no effect, 100 complete control); for pest or weed control at 500 g/ha: Postemergence, 500 g ai/ha, 0 to 100 scale where 0 is no effect and 100 is complete control
Method in brief: as §1

[10] = tested on: giant foxtail (Setaria faberii); experiment: Test A postemergence; settings: Setaria faberi, post-emergence, 240 h, read-out: Plant response rating, Foxtail, Giant; for pest or weed control at 125 g/ha: 125 g ai/ha, postemergence, visual rating after approx. 10 d, 0 to 100 scale (0 no effect, 100 complete control); for pest or weed control at 500 g/ha: Postemergence, 500 g ai/ha, 0 to 100 scale where 0 is no effect and 100 is complete control
Method in brief: as §1

[11] = tested on: Galium (catchweed bedstraw, Galium aparine); experiment: Test A postemergence; settings: Galium, post-emergence, 240 h, read-out: Plant response rating, Galium; for pest or weed control at 125 g/ha: 125 g ai/ha, postemergence, visual rating after approx. 10 d, 0 to 100 scale (0 no effect, 100 complete control); for pest or weed control at 500 g/ha: Postemergence, 500 g ai/ha, 0 to 100 scale where 0 is no effect and 100 is complete control
Method in brief: as §1

corn (Zea mays) = experiment: Test A postemergence; settings: Zea mays, post-emergence, 240 h; for Corn plant response rating (crop injury, 0 = no effect, 100 = complete kill) at 125 g/ha: 125 g ai/ha, postemergence, visual rating after approx. 10 d, 0 to 100 scale (0 no effect, 100 complete control); for Corn plant response rating (crop injury, 0 = no effect, 100 = complete kill) at 500 g/ha: Postemergence, 500 g ai/ha, 0 to 100 scale where 0 is no effect and 100 is complete control
Method in brief: as §1

[12] = tested on: ragweed (common ragweed, Ambrosia elatior); experiment: Test A postemergence; settings: Ambrosia artemisiifolia, post-emergence, 240 h, read-out: Plant response rating, Ragweed; for pest or weed control at 125 g/ha: 125 g ai/ha, postemergence, visual rating after approx. 10 d, 0 to 100 scale (0 no effect, 100 complete control); for pest or weed control at 500 g/ha: Postemergence, 500 g ai/ha, 0 to 100 scale where 0 is no effect and 100 is complete control
Method in brief: as §1

[13] = tested on: blackgrass (Alopecurus myosuroides); experiment: Test A postemergence; settings: Alopecurus myosuroides, post-emergence, 240 h, read-out: Plant response rating, Blackgrass; for pest or weed control at 125 g/ha: 125 g ai/ha, postemergence, visual rating after approx. 10 d, 0 to 100 scale (0 no effect, 100 complete control); for pest or weed control at 500 g/ha: Postemergence, 500 g ai/ha, 0 to 100 scale where 0 is no effect and 100 is complete control
Method in brief: as §1

Kochia (Kochia scoparia) [14] = experiment: Test A postemergence; settings: Bassia scoparia, post-emergence, 240 h, read-out: Plant response rating, Kochia; for pest or weed control at 125 g/ha: 125 g ai/ha, postemergence, visual rating after approx. 10 d, 0 to 100 scale (0 no effect, 100 complete control); for pest or weed control at 500 g/ha: Postemergence, 500 g ai/ha, 0 to 100 scale where 0 is no effect and 100 is complete control
Method in brief: as §1

[15] = tested on: ryegrass, Italian (Italian ryegrass, Lolium multiflorum); experiment: Test A postemergence; settings: Lolium multiflorum, post-emergence, 240 h, read-out: Plant response rating, Ryegrass, Italian; for pest or weed control at 125 g/ha: 125 g ai/ha, postemergence, visual rating after approx. 10 d, 0 to 100 scale (0 no effect, 100 complete control); for pest or weed control at 500 g/ha: Postemergence, 500 g ai/ha, 0 to 100 scale where 0 is no effect and 100 is complete control
Method in brief: as §1

[16] = Preemergence, read-out: Plant response rating, Pigweed
[17] = Preemergence, read-out: Plant response rating, Barnyardgrass
[18] = Preemergence, read-out: Plant response rating, Foxtail, Giant
[19] = Preemergence, read-out: Plant response rating, Ragweed
[20] = Preemergence, read-out: Plant response rating, Kochia
[21] = Preemergence, read-out: Plant response rating, Ryegrass, Italian

Row | Structure (SMILES) | pest or weed control at 125 g/ha [1, 16] | pest or weed control at 125 g/ha [2, 17] | pest or weed control at 125 g/ha [3, 18] | pest or weed control at 125 g/ha [4, 19] | pest or weed control at 125 g/ha (Kochia (Kochia scoparia) [5]; [20]) | pest or weed control at 125 g/ha [6, 21] | plant injury at 125 g/ha [7] | plant injury at 500 g/ha [7] | pest or weed control at 125 g/ha [8] | pest or weed control at 500 g/ha [8] | pest or weed control at 125 g/ha [9] | pest or weed control at 500 g/ha [9] | pest or weed control at 125 g/ha [10] | pest or weed control at 500 g/ha [10] | pest or weed control at 125 g/ha [11] | pest or weed control at 500 g/ha [11] | Corn plant response rating (crop injury, 0 = no effect, 100 = complete kill) at 125 g/ha (corn (Zea mays)) | Corn plant response rating (crop injury, 0 = no effect, 100 = complete kill) at 500 g/ha (corn (Zea mays)) | pest or weed control at 125 g/ha [12] | pest or weed control at 500 g/ha [12] | further results
1 | CN1C[C@H](c2ccc(F)c(F)c2)[C@@H](C(=O)Nc2ccccc2F)C1=O [Compound 596, (3S,4S)-4-(3,4-difluorophenyl)-N-(2-fluorophenyl)-1-methyl-2-oxo-3-pyrrolidinecarboxamide] | 0% | 90% | 100% | 0% | 20% | 40% | 0% | 50% | 0% | 20% | 90% | 90% | 90% | 90% | 30% | 50% | 20% | 60% | 0% | 0% | pest or weed control at 500 g/ha ([1]; Preemergence, visual injury approx. 10 d, read-out: Pigweed plant response rating (0 to 100 scale, 0 is no effect, 100 is complete control)): 40%; pest or weed control at 500 g/ha ([2]; Preemergence, visual injury approx. 10 d, read-out: Barnyardgrass plant response rating (0 to 100 scale, 0 is no effect, 100 is complete control)): 100%; pest or weed control at 500 g/ha ([3]; Preemergence, visual injury approx. 10 d, read-out: Foxtail, Giant plant response rating (0 to 100 scale, 0 is no effect, 100 is complete control)): 100%; pest or weed control at 500 g/ha ([4]; Preemergence, visual injury approx. 10 d, read-out: Ragweed plant response rating (0 to 100 scale, 0 is no effect, 100 is complete control)): 20%; pest or weed control at 500 g/ha (Kochia (Kochia scoparia) [5]; Preemergence, visual injury approx. 10 d, read-out: Kochia plant response rating (0 to 100 scale, 0 is no effect, 100 is complete control)): 70%; pest or weed control at 500 g/ha ([6]; Preemergence, visual injury approx. 10 d, read-out: Ryegrass, Italian plant response rating (0 to 100 scale, 0 is no effect, 100 is complete control)): 50%; pest or weed control at 125 g/ha [13]: 20%; pest or weed control at 500 g/ha [13]: 50%; pest or weed control at 125 g/ha (Kochia (Kochia scoparia) [14]): 40%; pest or weed control at 500 g/ha (Kochia (Kochia scoparia) [14]): 60%; pest or weed control at 125 g/ha [15]: 0%; pest or weed control at 500 g/ha [15]: 40%
2 | CN1C[C@H](c2ccc(C(F)(F)F)cc2)[C@@H](C(=O)Nc2cccc(F)c2F)C1=O [Compound 623, (3S,4S)—N-(2,3-difluorophenyl)-1-methyl-2-oxo-4-[4-(trifluoromethyl)phenyl]-3-pyrrolidinecarboxamide] | 80% | 90% | 90% | 80% | 60% | 80% | 40% | 70% | 60% | 60% | 90% | 90% | 90% | 90% | 50% | 60% | 60% | 70% | 20% | 0% | pest or weed control at 500 g/ha ([1]; preemergence, 0 to 100 scale, 0 = no effect, 100 = complete control, read-out: Plant response rating, Pigweed): 80%; pest or weed control at 500 g/ha ([2]; preemergence, 0 to 100 scale, 0 = no effect, 100 = complete control, read-out: Plant response rating, Barnyardgrass): 90%; pest or weed control at 500 g/ha ([3]; preemergence, 0 to 100 scale, 0 = no effect, 100 = complete control, read-out: Plant response rating, Foxtail, Giant): 90%; pest or weed control at 500 g/ha ([4]; preemergence, 0 to 100 scale, 0 = no effect, 100 = complete control, read-out: Plant response rating, Ragweed): 80%; pest or weed control at 500 g/ha (Kochia (Kochia scoparia) [5]; preemergence, 0 to 100 scale, 0 = no effect, 100 = complete control, read-out: Plant response rating, Kochia): 70%; pest or weed control at 500 g/ha ([6]; preemergence, 0 to 100 scale, 0 = no effect, 100 = complete control, read-out: Plant response rating, Ryegrass, Italian): 90%; pest or weed control at 125 g/ha [13]: 50%; pest or weed control at 500 g/ha [13]: 60%; pest or weed control at 125 g/ha (Kochia (Kochia scoparia) [14]): 40%; pest or weed control at 500 g/ha (Kochia (Kochia scoparia) [14]): 70%; pest or weed control at 125 g/ha [15]: 30%; pest or weed control at 500 g/ha [15]: 60%
